Measured values: patent US9296719B2, “Compositions and methods for the treatment of norovirus infection” (Indiana University Research and Technology Corporation, priority 2011, dated 2016)
pEC50: −log10 of the molar value. Entries after “also recorded” stand apart in the source; their conditions may differ. Where two headings read alike, the source gives them in different places.

Legend:
GII.4 NV polymerase = test: 5BR reporter assay, GII.4 polymerase; type: cell-based, Human Norovirus; details: for effect on GII.4 polymerase 5BR assay readout (screen): re-screened at 10 and 20 μM final concentrations, FIG. 6A
Description: (§1) The 5BR reporter assay to measure the activity of the Norovirus polymerase and other viral polymerases was performed as per Ranjith-Kumar et al. (32). The assay could also be performed with other viral proteins, such as VPg or VP1. Briefly, plasmids expressing RdRp and VPg were co-transfected along with plasmids to express RIG-I or MDA5, as well as the firefly and Renilla luciferase reporters. HEK293T or Huh 7 cells were transfected using Lipofectamine 2000 (Invitrogen, Carlsbad, Calif.) according to the manufacturer's instructions. 24 h prior to transfection, 0.75×10^5 cells were seeded into each well of Costar 96-well plates in DMEM containing 10% FBS. Cells were then typically transfected at 75% confluency with plasmid amounts detailed in the figure legends and complexed with Lipofectamine 2000 as per the manufacturer's instructions (Invitrogen, USA). Vector plasmid (pUNO-MCS) was used to maintain a constant total plasmid DNA per well. To examine the VPg effect on NV RdRp-RIG-I signaling, 293T cells were co-transfected with plasmids expressing RdRp and VPg. At 36 h after transfection, luciferase activity was measured using Dual-Glo Luciferase Assay System (Promega, Madison, Wis.) in Synergy 2 microplate reader (BioTek, Winooski, Vt.).
Where inhibitors were added to the cells for the 5BR assay, they were added 2 h after transfection of the plasmids.
We have previously developed an easily manipulative, cell-based assay to assess RNA synthesis by viral polymerases. The 5BR assay was validated for the 1b HCV polymerase (NS5B) and has since been established for several other viruses that cannot infect cultured human cells (32 and data not shown). The assay works by having the viral polymerase synthesize RNAs, which then act as agonists to activate RIG-I and/or MDA5. Receptor activation induces Firefly luciferase reporter expression which is driven by the interferon beta promoter (FIG. 2A). A Renilla luciferase is expressed in the same cells to report on the transfection efficiency and possible cytopathic effects. The polymerase from the GII.4 strain of Norwalk virus is the prototype in our assay.
The 5BR assay format has been validated for studies of nonnucleoside and nucleoside inhibitors (NNI, NI, respectively) of the 1b and 2a HCV polymerase and how resistant mutations can prevent inhibition (32). Using this format, we performed a proof-of-concept screen for inhibitor of the GII.4 polymerase. […] The hits were re-screened at 10 and 20 μM final concentrations (FIG. 6A). […] This is consistent with the results of Chang et al., (18) although Ribavirin is known to have pleiotropic effects on cellular as well as viral processes (66).

[1] = test system: recombinant GII.4 polymerase (NV RdRp); test: Differential scanning fluorimetry (DSF) binding to recombinant NV polymerase; parameters: species or system Human Norovirus
Text: Differential Scanning Fluorimetry (DSF)
This method is used to examine the binding of proteins to drugs (31). The principle for the assay is that the thermal denaturation profile of the protein could be changed when it is complexed to the drug. To perform the assay, thermal melting curves of NV RdRp in the presence of inhibitors were obtained in 96-well plates using Stratagene Mx3005P Q-PCR system (Agilent Tachnologies, USA) and the fluorescent dye SYPRO Orange (Invitrogen, Carlsbad, Calif.). To evaluate the binding affinities of inhibitors, different concentrations of various drugs like VX-222, Filibuvir and Ribavirin were mixed with 20 μM purified NV RdRp and 5× concentration of SYPRO Orange. A heating rate of 1.0° C. per min was used from 25 to 90° C., and fluorescence intensity was read at excitation and emission wavelengths of 470 and 550 nm, respectively. Each sample was tested in triplicate, and the results were duplicated in at least two independent assays.

RIG-I signaling = RIG-I signaling in the absence of the NV polymerase; type: cell-based, human; details: absence of the NV polymerase (data not shown)
Description: as §1, with “Vt.). […]” for “Vt.).”

MNV polymerase = molecular target: T1, MNV polymerase (Norovirus, UniProt Q80J95); test: 5BR reporter assay, MNV polymerase; type: cell-based, Mouse norovirus; details: 5BR assay; read-out: EC50, inhibition of MNV polymerase
T1 construct: NS7, the RNA-dependent RNA polymerase (RdRp), and NS5 (VPg), the protein primer; expressed in transfected cells; host or cells: HEK293T or Huh 7
Description: as §1
(§2) Where inhibitors were added to the cells for the 5BR assay, they were added 2 h after transfection of the plasmids. […]

[2] = molecular target: GII.4 polymerase-VPg complex; test: 5BR reporter assay, GII.4 polymerase-VPg complex; type: cell-based, Human Norovirus
Description: as §1, §2

Compound	effect on GII.4 polymerase 5BR assay readout (screen) (GII.4 NV polymerase)	effect in the DSF assay ([1]; recombinant GII.4 polymerase)	effect on RIG-I signaling (RIG-I signaling)	pEC50 (MNV polymerase)	pEC50 (GII.4 NV polymerase; 5BR assay, polymerase alone (no VPg), read-out: EC50, inhibition of GII4 polymerase)	pEC50 (GII.4 NV polymerase; HEK293T cells, 5BR assay, read-out: effective concentration for inhibition)	inhibition of GII.4 NV polymerase activity in Huh7 cells (GII.4 NV polymerase; Huh7 cells, 5BR assay, GII.4 VP1 co-expressed, FIG. 6C)	pEC50 ([2]; 5BR assay, VPg co-expressed, read-out: EC50 with GII.4 polymerase-VPg complex)	pEC50 ([2]; library screen, read-out: EC50, inhibitor of human norovirus polymerase-VPg complex)	shift of thermal denaturation profile (apparent Tm) of GII.4 polymerase ([1]; absence of VPg, apparent Tm of polymerase alone ~43.5° C.)	concentration at which the thermal denaturation profile starts to shift ([1]; nucleoside form) [µM]
CCc1cc(CC[C@]2(C3CCCC3)CC(O)=C(Cc3nc4nc(C)cc(C)n4n3)C(=O)O2)cc(CC)n1 [Filibuvir]	no effect; also recorded: did not affect	no effect	–	–	–	–	–	–	–	–	–
VX-222	–	–	did not affect	~4.82	~4.82	~7.00	concentration-dependent inhibition	6.05	> 6.00	more than 4.5 °C	–
NC(=O)c1ncn([C@@H]2O[C@H](CO)[C@@H](O)[C@H]2O)n1 [Ribavirin]	modest inhibitory effect	–	–	–	–	–	–	–	–	–	1
